According to PubChem BioAssay (NCI):
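Results reflect a 48-hour exposure of cells in 96-well plates to compound at five concentrations. The concentration for full growth arrest is given as TGI.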

What was measured:
Assay in all cases: growth of human tumour cells (NCI), 48 h
[1] = tested on: PC-3 prostate
[2] = tested on: OVCAR-8 ovarian
[3] = tested on: IGROV1 ovarian
[4] = tested on: KM12 colon
[5] = tested on: NCI-H522 lung
[6] = tested on: M14 melanoma
[7] = tested on: HS 578T breast
[8] = tested on: SK-MEL-28 melanoma
[9] = tested on: MDA-MB-435
[10] = tested on: MDA-N
[11] = tested on: A498 renal
[12] = tested on: HCT-116 colon
[13] = tested on: 786-0 renal
[14] = tested on: MCF7 breast
[15] = tested on: SR leukemia
[16] = tested on: UO-31 renal
[17] = tested on: T-47D breast
[18] = tested on: COLO 205 colon
[19] = tested on: SN12C renal
[20] = tested on: HCC-2998 colon

Structure (SMILES)	TGI [1]	TGI [2]	TGI [3]	TGI [4]	TGI [5]	TGI [6]	TGI [7]	TGI [8]	TGI [9]	TGI [10]	TGI [11]	TGI [12]	TGI [13]	TGI [14]	TGI [15]	TGI [16]	TGI [17]	TGI [18]	TGI [19]	TGI [20]
O=C(Nc1nnc(-c2ccccc2)o1)C(SC(=S)N1CCCCC1)c1ccccc1 (stereo not drawn)	96.2 µM	> 100 µM	> 100 µM	> 100 µM	97.6 µM	27.4 µM	> 100 µM	> 100 µM	73.3 µM	69.9 µM	73.9 µM	32.1 µM	87.5 µM	> 100 µM	> 100 µM	26.9 µM	> 100 µM	> 100 µM	42 µM	
Brc1ccc2[nH]cc(-c3csc(-c4ccccn4)n3)c2c1	51.7 µM	> 100 µM	> 88.8 µM	> 100 µM	> 100 µM	> 100 µM	> 100 µM	> 100 µM	> 100 µM	> 100 µM	12.4 µM	50.9 µM	20.3 µM	> 100 µM	43.6 µM	> 100 µM	> 100 µM	> 56.3 µM	30.7 µM	31 µM
Cc1c(NC(=S)NN)c(=O)n(-c2ccccc2)n1C	> 100 µM	> 100 µM	> 100 µM	> 100 µM	> 100 µM	> 100 µM	> 100 µM	> 100 µM	> 100 µM	> 100 µM	> 100 µM	> 100 µM	> 100 µM	> 100 µM	> 100 µM	> 100 µM	> 100 µM	> 100 µM	> 100 µM	
CN(C)C(Cc1cnc[nH]1)C(=O)N1CCCC1C(N)=O (stereo not drawn)	> 100 µM	> 100 µM	> 100 µM	> 100 µM	> 100 µM	> 100 µM	> 100 µM	> 100 µM	> 100 µM	> 100 µM	98 µM	> 100 µM	> 100 µM	> 100 µM	> 100 µM	> 100 µM	> 100 µM	> 100 µM	> 100 µM	> 100 µM
CCOC(=O)C1(C(N)=O)C(=O)c2ccncc2C1=O (stereo not drawn)	> 100 µM	> 100 µM	> 100 µM	> 100 µM	> 100 µM	> 100 µM	> 100 µM	> 100 µM	> 100 µM	> 100 µM	> 100 µM	> 100 µM	> 100 µM	> 100 µM	> 100 µM	> 100 µM	> 100 µM	> 100 µM	> 100 µM	> 100 µM
COc1cc(-c2cn(S(=O)(=O)c3ccc(C)cc3)c3ccccc23)nc(-c2cn(S(=O)(=O)c3ccc(C)cc3)c3ccccc23)n1	38.5 µM	> 100 µM		8.44 µM	0.506 µM	17 µM	> 100 µM	> 55.7 µM	0.47 µM	1.88 µM	> 100 µM	> 33.8 µM	> 100 µM	> 100 µM	> 100 µM	> 75.1 µM	> 100 µM	3.31 µM	> 100 µM	> 100 µM
CCC(C#N)(c1ccccc1)N(CCc1ccccc1)C(=O)c1ccccc1 (stereo not drawn)	> 100 µM	54.2 µM	> 100 µM	> 100 µM	> 100 µM	> 100 µM	69.6 µM	> 100 µM	> 100 µM	> 100 µM	79.6 µM	> 100 µM	37.5 µM	> 100 µM	> 100 µM	> 100 µM	> 100 µM	> 100 µM	> 100 µM	> 100 µM
O=c1c2cc(-c3ccccc3)sc2nc2n1N=C(c1ccccc1)CS2	> 100 µM	> 100 µM		> 100 µM	> 100 µM		49.4 µM	> 100 µM	> 100 µM	> 100 µM	71.9 µM	> 100 µM	38 µM	96.2 µM	> 100 µM	> 100 µM	> 100 µM	> 100 µM	> 100 µM	> 100 µM
COc1ccccc1/C=C/C1=NN(c2cccc(S(=O)(=O)O)c2)C2(C1)SCC(=O)N2c1nc2ccccc2s1 (stereo not drawn)	> 100 µM	> 100 µM	> 100 µM	> 100 µM	> 100 µM	> 100 µM	> 100 µM	> 100 µM	> 100 µM	> 100 µM	> 100 µM	> 100 µM	> 100 µM	> 100 µM	87.9 µM	> 100 µM	71.8 µM	> 100 µM	> 100 µM	> 100 µM
Cc1ccc(-c2nc(C)c(C(=O)Nc3ccc(Cl)cc3)s2)cc1	> 100 µM	36.9 µM	82.4 µM	> 100 µM	> 100 µM	> 100 µM	62.1 µM	> 100 µM	> 100 µM	> 100 µM	41.5 µM	41.2 µM	29.3 µM	> 100 µM	> 100 µM	49.3 µM	> 100 µM	> 100 µM	> 100 µM	
CCCCCCCC1C(C)c2c([nH]c3ccccc23)C2C(=O)N(c3ccc(OC)cc3)C(=O)C21 (stereo not drawn)	> 10 µM	6.02 µM	> 10 µM	> 10 µM	> 10 µM	> 9.51 µM	4.88 µM	> 10 µM	> 8.39 µM	> 10 µM	5.47 µM	3.61 µM	3.28 µM	> 10 µM	> 10 µM	6.86 µM	> 10 µM	> 10 µM	> 5.95 µM	> 10 µM
COc1cc2c(/C=C3/C(=O)N(C)c4ccccc43)c(Cl)[nH]c2cc1C	13 µM	3.77 µM	2.7 µM		0.518 µM	11.5 µM	> 100 µM	> 100 µM	0.038 µM	0.153 µM	> 50.6 µM	7.02 µM	16.5 µM	> 23.5 µM	10.2 µM	> 58.3 µM	> 100 µM	0.579 µM	7.99 µM	0.317 µM
